Key:
Assay in all cases: relative viability (nuclei count vs DMSO), 5 days (fraction); higher = more cells survive
AZ628 + Pictilisib = compound: CC1=C(C=C(C=C1)NC(=O)C2=CC(=CC=C2)C(C)(C)C#N)NC3=CC4=C(C=C3)N=CN(C4=O)C [AZ628] + CS(=O)(=O)N1CCN(Cc2cc3nc(-c4cccc5[nH]ncc45)nc(N4CCOCC4)c3s2)CC1 [Pictilisib] (partner 1 µM)
Method in brief: (§1)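 For relative viability, nuclei counts in treated wells were divided by those in vehicle wells. Lung cancer cell lines had been pin-tool dosed in 1536-well plates the day after seeding and cultured for 5 days, then fixed and stained in one step (final 0.05% Triton X-100, 1% formaldehyde, 1 ug/ml Hoechst) and imaged at 4×. Doses were one drug alone or a fixed anchor-drug dose plus five library-drug doses (not always all listed) in √10 steps, and values are duplicate-plate medians.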

AZ628 + Dasatinib = compound: CC1=C(C=C(C=C1)NC(=O)C2=CC(=CC=C2)C(C)(C)C#N)NC3=CC4=C(C=C3)N=CN(C4=O)C [AZ628] + Cc1nc(Nc2ncc(C(=O)Nc3c(C)cccc3Cl)s2)cc(N2CCN(CCO)CC2)n1 [Dasatinib] (partner 0.075 µM)
Method in brief: as §1

QS11 + Dasatinib = compound: C1CC2=C(C1)C=C(C=C2)OC3=NC(=C4C(=N3)N(C=N4)CC5=CC=C(C=C5)C6=CC=CC=C6)N[C@@H](CC7=CC=CC=C7)CO [QS11] + Cc1nc(Nc2ncc(C(=O)Nc3c(C)cccc3Cl)s2)cc(N2CCN(CCO)CC2)n1 [Dasatinib] (partner 0.075 µM)
Method in brief: as §1

AZ628 + AZD7762 = compound: CC1=C(C=C(C=C1)NC(=O)C2=CC(=CC=C2)C(C)(C)C#N)NC3=CC4=C(C=C3)N=CN(C4=O)C [AZ628] + NC(=O)Nc1cc(-c2cccc(F)c2)sc1C(=O)N[C@H]1CCCNC1 [AZD7762] (partner 0.2 µM)
Method in brief: as §1

Row | Cell Line | relative viability (AZ628 + Pictilisib; first compound 0.08 µM) | relative viability (AZ628 + Pictilisib; first compound 0.253 µM) | relative viability (AZ628 + Pictilisib; first compound 0.8 µM) | relative viability (AZ628 + Pictilisib; first compound 2.53 µM) | relative viability (AZ628 + Pictilisib; first compound 8 µM) | relative viability (AZ628 + Dasatinib; first compound 0.08 µM) | relative viability (AZ628 + Dasatinib; first compound 0.253 µM) | relative viability (AZ628 + Dasatinib; first compound 0.8 µM) | relative viability (AZ628 + Dasatinib; first compound 2.53 µM) | relative viability (AZ628 + Dasatinib; first compound 8 µM) | relative viability (QS11 + Dasatinib; first compound 0.08 µM) | relative viability (QS11 + Dasatinib; first compound 0.253 µM) | relative viability (QS11 + Dasatinib; first compound 0.8 µM) | relative viability (QS11 + Dasatinib; first compound 2.53 µM) | relative viability (QS11 + Dasatinib; first compound 8 µM) | relative viability (AZ628 + AZD7762; first compound 0.08 µM) | relative viability (AZ628 + AZD7762; first compound 0.253 µM) | relative viability (AZ628 + AZD7762; first compound 0.8 µM) | relative viability (AZ628 + AZD7762; first compound 2.53 µM) | relative viability (AZ628 + AZD7762; first compound 8 µM)
1 | NCI-H1792 | 0.251 | 0.296 | 0.212 | 0.223 | 0.149 | 0.901 | 0.595 | 0.513 | 0.584 | 0.299 | 0.697 | 0.754 | 0.672 | 0.745 | 0.942 | 0.776 | 0.668 | 0.575 | 0.541 | 0.385
2 | HCC-366 | 0.15 | 0.18 | 0.0993 | 0.126 | 0.0787 | 0.663 | 0.653 | 0.492 | 0.55 | 0.406 | 0.7 | 0.616 |  | 0.578 | 0.576 | 0.248 | 0.193 | 0.235 | 0.207 | 0.149
3 | NCI-H2347 | 0.321 | 0.437 | 0.312 | 0.32 | 0.287 | 0.272 | 0.278 | 0.22 | 0.252 | 0.163 | 0.279 | 0.297 | 0.308 | 0.274 | 0.308 | 0.684 | 0.575 | 0.709 | 0.566 | 0.34
4 | 201T | 0.688 | 0.659 | 0.691 | 0.71 | 0.723 | 0.592 | 0.533 | 0.53 | 0.513 | 0.471 | 0.57 | 0.543 | 0.561 | 0.599 | 0.376 | 0.523 | 0.541 | 0.57 | 0.462 | 0.45
5 | NCI-H358 | 0.341 | 0.289 | 0.286 | 0.308 | 0.349 | 0.184 | 0.124 | 0.136 | 0.161 | 0.1 | 0.144 | 0.171 | 0.189 | 0.393 | 0.656 | 0.499 | 0.405 | 0.367 | 0.412 | 0.302
6 | NCI-H1993 | 0.784 | 0.829 | 0.705 | 0.769 | 0.726 | 0.556 | 0.546 | 0.613 | 0.578 | 0.553 | 0.558 | 0.508 | 0.618 | 0.684 | 0.528 | 0.855 | 0.546 | 0.53 | 0.556 | 0.571
7 | EMC-BAC-2 | 0.511 | 0.476 | 0.455 | 0.459 | 0.466 | 0.303 | 0.321 | 0.383 | 0.373 | 0.412 | 0.341 | 0.337 | 0.376 | 0.285 | 0.269 | 1.16 | 1.09 | 1.18 | 1.13 | 1.28
8 | RERF-LC-KJ | 0.573 | 0.633 | 0.612 | 0.513 | 0.487 | 0.737 | 0.72 | 0.752 | 0.75 | 0.64 | 0.921 | 0.836 | 0.764 | 0.61 | 0.534 | 0.948 | 0.901 | 1.56 | 1.03 | 0.87
9 | H3255 | 0.457 | 0.499 | 0.463 | 0.398 | 0.225 | 0.311 | 0.362 | 0.319 | 0.351 | 0.252 | 0.319 | 0.394 |  | 0.369 | 0.402 | 0.852 | 0.726 | 0.806 | 1.01 | 0.684
10 | HCC-827 | 0.98 | 0.994 | 0.988 | 0.984 | 0.826 | 0.364 | 0.295 | 0.296 | 0.25 | 0.18 | 0.244 | 0.26 | 0.386 | 0.305 | 0.328 | 0.258 | 0.177 | 0.17 | 0.217 | 0.166
11 | LXF-289 | 0.779 | 0.712 | 0.754 | 0.654 | 0.401 | 0.192 | 0.23 | 0.279 | 0.274 | 0.167 | 0.228 | 0.263 | 0.241 | 0.291 | 0.191 | 1.12 | 1.08 | 0.98 | 1.06 | 0.652
12 | NCI-H727 | 0.314 | 0.199 | 0.184 | 0.281 | 0.28 | 0.318 | 0.3 | 0.306 | 0.23 | 0.264 | 0.297 | 0.467 | 0.353 | 0.554 | 0.438 | 0.504 |  |  | 0.369 | 0.333
13 | NCI-H322M | 0.554 | 0.473 | 0.482 | 0.469 | 0.412 | 0.28 | 0.261 | 0.264 | 0.231 | 0.268 | 0.264 | 0.261 | 0.27 | 0.292 | 0.318 | 0.529 | 0.526 | 0.455 | 0.467 | 0.524
14 | NCI-H2126 | 0.533 | 0.549 | 0.537 | 0.513 | 0.457 | 0.584 | 0.565 | 0.492 | 0.491 | 0.415 | 0.604 | 0.505 | 0.616 | 0.61 | 0.566 | 1.08 | 0.945 | 0.775 | 1.01 | 0.984
15 | NCI-H2405 | 0.222 | 0.249 | 0.256 | 0.255 | 0.257 | 0.175 | 0.201 | 0.189 | 0.172 | 0.23 | 0.196 | 0.2 | 0.206 | 0.276 | 0.325 | 0.54 | 0.387 | 0.498 | 0.419 | 0.458
16 | NCI-H1944 | 0.359 | 0.321 | 0.322 | 0.29 | 0.321 | 0.209 | 0.211 | 0.208 | 0.192 | 0.197 | 0.197 | 0.214 |  | 0.226 | 0.272 | 0.5 | 0.488 | 0.454 | 0.414 | 0.359
17 | EKVX | 0.487 | 0.489 | 0.471 | 0.472 | 0.333 | 0.537 | 0.541 | 0.422 | 0.346 | 0.334 | 0.529 | 0.503 | 0.512 | 0.505 | 0.589 | 0.71 | 0.755 | 0.558 | 0.704 | 0.64
